Laboratory results published in PubChem BioAssay AID256 (DTP/NCI, 2004).
“And” between values parts separate entries of the source, which are not always exact repeats. Equal values may be shown once. Toxic doses and inconclusive results are not listed.

Tested on: CD2F1 mice, L1210 leukemia ip, survival T/C
Test: NCI In Vivo Anticancer Drug Screen. Data for tumor model L1210 Leukemia (intraperitoneal) in CD2F1 (CDF1) mice
Settings: higher = longer survival
Outline: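 Mice carrying a transplanted tumor received test compound or vehicle alone. The value is the measurement in the treated group divided by that in the vehicle-treated control group.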

[1] = endpoint: mean survival time, dose: 100.0 mg/kg/injection, schedule: Q01DX009 (ip), vehicle: saline
[2] = endpoint: mean survival time, dose: 100.0 mg/kg/injection, schedule: Q04DX003 (ip), vehicle: saline
[3] = endpoint: mean survival time, dose: 200.0 mg/kg/injection, schedule: Q04DX003 (ip), vehicle: saline
[4] = endpoint: mean survival time, dose: 25.0 mg/kg/injection, schedule: Q01DX005 (ip), vehicle: distilled water + Tween-80
[5] = endpoint: mean survival time, dose: 50.0 mg/kg/injection, schedule: Q01DX005 (ip), vehicle: distilled water + Tween-80
[6] = endpoint: mean survival time, dose: 100.0 mg/kg/injection, schedule: Q01DX005 (ip), vehicle: distilled water + Tween-80
[7] = endpoint: mean survival time, dose: 200.0 mg/kg/injection, schedule: Q01DX005 (ip), vehicle: distilled water + Tween-80
[8] = endpoint: mean survival time, dose: 100.0 mg/kg/injection, schedule: Q04DX002 (ip), vehicle: saline with Tween-80
[9] = endpoint: mean survival time, dose: 200.0 mg/kg/injection, schedule: Q04DX002 (ip), vehicle: saline with Tween-80
[10] = endpoint: mean survival time, dose: 400.0 mg/kg/injection, schedule: Q04DX002 (ip), vehicle: saline with Tween-80
[11] = endpoint: mean survival time, dose: 100.0 mg/kg/injection, schedule: Q01DX001 (ip), vehicle: saline with Tween-80
[12] = endpoint: mean survival time, dose: 200.0 mg/kg/injection, schedule: Q01DX001 (ip), vehicle: saline with Tween-80

## ICC1CCC(CI)CC1 (configuration not stated)
endpoint: mean survival time, dose: 100.0 mg/kg/injection, schedule: Q01DX001 (ip), vehicle: saline
  T/C: 98 % of control
endpoint: mean survival time, dose: 200.0 mg/kg/injection, schedule: Q01DX001 (ip), vehicle: saline
  T/C: 96 % of control
endpoint: mean survival time, dose: 400.0 mg/kg/injection, schedule: Q01DX001 (ip), vehicle: saline
  T/C: 93 % of control

## O=c1[nH]cnc2c1CN(c1ccc(Cl)cc1)C2
endpoint: mean survival time, dose: 75.0 mg/kg/injection, schedule: Q01DX001 (ip), vehicle: saline
  T/C: 101 % of control
endpoint: mean survival time, dose: 150.0 mg/kg/injection, schedule: Q01DX001 (ip), vehicle: saline
  T/C: 90 % of control
endpoint: mean survival time, dose: 300.0 mg/kg/injection, schedule: Q01DX001 (ip), vehicle: saline
  T/C: 93 % of control

## COc1ccc(C2=Nc3cccc4c3N(CCC4)C2c2ccc(OC)cc2)cc1 (configuration not stated)
endpoint: mean survival time, dose: 100.0 mg/kg/injection, schedule: Q04DX003 (ip), vehicle: other
  T/C: 96 % of control
endpoint: mean survival time, dose: 200.0 mg/kg/injection, schedule: Q04DX003 (ip), vehicle: other
  T/C: 96 % of control
endpoint: mean survival time, dose: 400.0 mg/kg/injection, schedule: Q04DX003 (ip), vehicle: other
  T/C: 94 % of control

## Cc1cccc(CCl)n1
[1]
  T/C: 98 % of control
[2]
  T/C: 101 % of control
endpoint: mean survival time, dose: 200.0 mg/kg/injection, schedule: Q01DX009 (ip), vehicle: saline
  T/C: 90 % of control
[3]
  T/C: 95 % of control
endpoint: mean survival time, dose: 400.0 mg/kg/injection, schedule: Q04DX003 (ip), vehicle: saline
  T/C: 87 % of control

## CC(=O)OCC1OC(n2ncc3c(N4CC4)ncnc32)C(OC(C)=O)C1OC(C)=O (configuration not stated)
[4]
  T/C: 97 % of control
[5]
  T/C: 99 % of control
[6]
  T/C: 101 % of control
[7]
  T/C: 100 % of control
endpoint: mean survival time, dose: 400.0 mg/kg/injection, schedule: Q01DX005 (ip), vehicle: distilled water + Tween-80
  T/C: 97 % of control

## O=C(NC1CCC(CC2CCCCC2)CC1)C(Cl)Cl (configuration not stated)
[8]
  T/C: 101 % of control
[9]
  T/C: 101 % of control
[10]
  T/C: 89 % of control

## O=C(O)C1CCC(C(=O)O)CC1.[NH-]C1CCCCC1[NH-].[Pt+2] (configuration not stated)
endpoint: median survival time, dose: 3.12 mg/kg/injection, schedule: Q04DX003 (ip), vehicle: saline
  T/C: 123 % of control and 112 % of control
endpoint: median survival time, dose: 6.25 mg/kg/injection, schedule: Q04DX003 (ip), vehicle: saline
  T/C: 122 % of control
endpoint: median survival time, dose: 25.0 mg/kg/injection, schedule: Q04DX003 (ip), vehicle: saline
  T/C: 168 % of control
endpoint: median survival time, dose: 50.0 mg/kg/injection, schedule: Q04DX003 (ip), vehicle: saline
  T/C: 207 % of control and 237 % of control
endpoint: median survival time, dose: 100.0 mg/kg/injection, schedule: Q04DX003 (ip), vehicle: saline
  T/C: 287 % of control and 365 % of control
endpoint: median survival time, dose: 200.0 mg/kg/injection, schedule: Q04DX003 (ip), vehicle: saline
  T/C: 87 % of control and 89 % of control

## [Cl][Pt+2][Cl].[NH-]CC1(C[NH-])CCC1
endpoint: mean survival time, dose: 3.12 mg/kg/injection, schedule: Q04DX003 (ip), vehicle: saline
  T/C: 111 % of control
endpoint: mean survival time, dose: 12.5 mg/kg/injection, schedule: Q04DX003 (ip), vehicle: saline
  T/C: 229 % of control
endpoint: mean survival time, dose: 25.0 mg/kg/injection, schedule: Q04DX003 (ip), vehicle: saline
  T/C: 272 % of control
endpoint: mean survival time, dose: 50.0 mg/kg/injection, schedule: Q04DX003 (ip), vehicle: saline
  T/C: 174 % of control and 231 % of control
[2]
  T/C: 164 % of control and 335 % of control
[3]
  T/C: 90 % of control
endpoint: median survival time, dose: 0.1 mg/kg/injection, schedule: Q01DX009 (ip), vehicle: Klucel (hydroxypropylcellulose) (HPC)
  T/C: 111 % of control
endpoint: median survival time, dose: 0.2 mg/kg/injection, schedule: Q01DX009 (ip), vehicle: Klucel (hydroxypropylcellulose) (HPC)
  T/C: 111 % of control
endpoint: median survival time, dose: 1.5 mg/kg/injection, schedule: Q01DX009 (ip), vehicle: carboxymethylcellulose (CMC)
  T/C: 239 % of control
endpoint: median survival time, dose: 3.0 mg/kg/injection, schedule: Q01DX009 (ip), vehicle: carboxymethylcellulose (CMC)
  T/C: 281 % of control
endpoint: median survival time, dose: 3.12 mg/kg/injection, schedule: Q01DX009 (ip), vehicle: Klucel (hydroxypropylcellulose) (HPC)
  T/C: 222 % of control and 320 % of control
endpoint: median survival time, dose: 3.13 mg/kg/injection, schedule: Q01DX009 (ip), vehicle: Klucel (hydroxypropylcellulose) (HPC)
  T/C: 169 % of control and 206 % of control
endpoint: median survival time, dose: 6.0 mg/kg/injection, schedule: Q01DX001 (ip), vehicle: carboxymethylcellulose (CMC)
  T/C: 171 % of control
endpoint: median survival time, dose: 8.0 mg/kg/injection, schedule: Q01DX001 (ip), vehicle: other
  T/C: 186 % of control
endpoint: median survival time, dose: 9.0 mg/kg/injection, schedule: Q01DX001 (ip), vehicle: carboxymethylcellulose (CMC)
  T/C: 176 % of control
endpoint: median survival time, dose: 9.0 mg/kg/injection, schedule: Q01DX009 (ip), vehicle: carboxymethylcellulose (CMC)
  T/C: 114 % of control
endpoint: median survival time, dose: 12.0 mg/kg/injection, schedule: Q01DX001 (ip), vehicle: carboxymethylcellulose (CMC)
  T/C: 203 % of control
endpoint: median survival time, dose: 12.0 mg/kg/injection, schedule: Q01DX001 (ip), vehicle: other
  T/C: 212 % of control
endpoint: median survival time, dose: 15.0 mg/kg/injection, schedule: Q01DX001 (ip), vehicle: carboxymethylcellulose (CMC)
  T/C: 203 % of control
endpoint: median survival time, dose: 16.0 mg/kg/injection, schedule: Q01DX001 (ip), vehicle: other
  T/C: 242 % of control
endpoint: median survival time, dose: 20.0 mg/kg/injection, schedule: Q01DX001 (ip), vehicle: other
  T/C: 103 % of control

## CCSCCCC(=O)O
endpoint: mean survival time, dose: 25.0 mg/kg/injection, schedule: Q01DX009 (ip), vehicle: saline
  T/C: 97 % of control
endpoint: mean survival time, dose: 50.0 mg/kg/injection, schedule: Q01DX009 (ip), vehicle: saline
  T/C: 93 % of control
[1]
  T/C: 101 % of control
endpoint: mean survival time, dose: 100.0 mg/kg/injection, schedule: Q04DX003 (ip), vehicle: saline sonified
  T/C: 101 % of control

## O=C1C(c2ccccc2)=C(c2ccccc2)c2cc(Br)c(Br)cc21
endpoint: mean survival time, dose: 50.0 mg/kg/injection, schedule: Q01DX001 (ip), vehicle: saline with Tween-80
  T/C: 93 % of control
[11]
  T/C: 93 % of control
[12]
  T/C: 93 % of control

## CCOc1ccc(OCC)c(NC(=O)Nc2ccccc2OC)c1
[8]
  T/C: 96 % of control
[9]
  T/C: 96 % of control
[10]
  T/C: 96 % of control

## CN(C)C(=O)Nc1cccc(OS(=O)(=O)N(C)C)c1
endpoint: mean survival time, dose: 100.0 mg/kg/injection, schedule: Q04DX003 (ip), vehicle: saline with Tween-80
  T/C: 99 % of control
endpoint: mean survival time, dose: 200.0 mg/kg/injection, schedule: Q04DX003 (ip), vehicle: saline with Tween-80
  T/C: 96 % of control

## N=c1ncn(C2OC(COP(=O)(O)O)C(O)C2O)c2nc[nH]c12 (configuration not stated)
endpoint: mean survival time, dose: 0.78 mg/kg/injection, schedule: Q01DX005 (ip), vehicle: water
  T/C: 102 % of control
endpoint: mean survival time, dose: 1.56 mg/kg/injection, schedule: Q01DX005 (ip), vehicle: water
  T/C: 110 % of control
endpoint: mean survival time, dose: 3.13 mg/kg/injection, schedule: Q01DX005 (ip), vehicle: water
  T/C: 105 % of control
endpoint: mean survival time, dose: 6.25 mg/kg/injection, schedule: Q01DX005 (ip), vehicle: water
  T/C: 111 % of control
endpoint: mean survival time, dose: 11.3 mg/kg/injection, schedule: Q01DX005 (ip), vehicle: water
  T/C: 98 % of control
endpoint: mean survival time, dose: 12.5 mg/kg/injection, schedule: Q01DX005 (ip), vehicle: water
  T/C: 102 % of control
endpoint: mean survival time, dose: 22.5 mg/kg/injection, schedule: Q01DX005 (ip), vehicle: water
  T/C: 98 % of control
endpoint: mean survival time, dose: 45.0 mg/kg/injection, schedule: Q01DX005 (ip), vehicle: water
  T/C: 102 % of control

## CC(=O)O/C=C/C=C/C=N/c1nc2c(c(=O)n(C)c(=O)n2C)n1C
endpoint: mean survival time, dose: 12.5 mg/kg/injection, schedule: Q01DX005 (ip), vehicle: distilled water + Tween-80
  T/C: 105 % of control
[4]
  T/C: 91 % of control
[5]
  T/C: 94 % of control
[6]
  T/C: 103 % of control
[7]
  T/C: 97 % of control

## CCOC(=O)COc1ccc(OC)cc1C=O
[11]
  T/C: 93 % of control
[12]
  T/C: 93 % of control
endpoint: mean survival time, dose: 400.0 mg/kg/injection, schedule: Q01DX001 (ip), vehicle: saline with Tween-80
  T/C: 97 % of control

## CCOC(=O)C1=C(C)N(Cc2ccccc2)C(C)=C(C(=O)OCC)C1(C)C
endpoint: mean survival time, dose: 100.0 mg/kg/injection, schedule: Q01DX009 (ip), vehicle: saline with Tween-80
  T/C: 107 % of control
endpoint: mean survival time, dose: 200.0 mg/kg/injection, schedule: Q01DX009 (ip), vehicle: saline with Tween-80
  T/C: 109 % of control
endpoint: mean survival time, dose: 400.0 mg/kg/injection, schedule: Q01DX009 (ip), vehicle: saline with Tween-80
  T/C: 107 % of control

## C=C[CH2][Sn]([CH2]C=C)([c]1ccccc1)[c]1ccccc1
endpoint: mean survival time, dose: 6.25 mg/kg/injection, schedule: Q01DX009 (ip), vehicle: saline with Tween-80
  T/C: 89 % of control
endpoint: median survival time, dose: 25.0 mg/kg/injection, schedule: Q04DX002 (ip), vehicle: saline with Tween-80
  T/C: 112 % of control
